Row | Structure (SMILES) | melting point
1 | COCOc1ccc(-c2cc([S+](C)[O-])nn2-c2ccc(OC)cc2)cc1 (centres unmarked) | 136.9 to 137.3 °C
2 | COc1ccc(-n2nc(C#N)cc2-c2ccc(OCCO)cc2)cc1 | 91 to 92 °C
3 | COc1ccc(-n2nc(-c3nc(C)no3)cc2-c2ccc(OCCO)cc2)cc1 | 158 to 159 °C
4 | COc1ccc(-n2nc(C(F)(F)C(F)(F)F)cc2-c2ccc(CCO)cc2)cc1 | 97 to 98 °C
5 | COc1ccc(-n2nc(C(F)(F)F)cc2-c2ccc(CCO)cc2)cn1 | 89 to 92 °C
6 | COc1ccc(-n2nc(C3CC3)cc2-c2ccc(CCO)cc2)cc1 | 111 to 112 °C
7 | CNC(=O)NCCc1ccc(-c2cc(C(F)(F)F)nn2-c2ccc(OC)nc2)cc1 | 149 °C
8 | COc1ccc(-n2nc(C(F)(F)F)cc2-c2ccc(CCNC(C)=O)cc2)cc1 | 79 to 80 °C
9 | COc1ccc(-n2nc(C(F)(F)F)cc2-c2ccc(CCNS(N)(=O)=O)cc2)cc1 | 127 to 128 °C
10 | COc1ccc(-n2nc(C(F)(F)F)cc2-c2ccc(CCNS(N)(=O)=O)cc2)cn1 | 114 to 115 °C
11 | COc1ccc(-n2nc(C3CC3)cc2-c2ccc(OCCNS(N)(=O)=O)cc2)cc1 | 142 to 143 °C
12 | CCN(C)C(=O)c1cc(-c2ccc(CCNS(C)(=O)=O)cc2)n(-c2ccc(OC)cc2)n1 | 162 to 163 °C
13 | COc1ccc(-n2nc(C(=O)C(C)C)cc2-c2ccc(OCCNS(C)(=O)=O)cc2)cc1 | 155 °C
14 | COc1ccc(-n2nc(C#N)cc2-c2ccc(OCCNS(C)(=O)=O)cc2)cc1 | 149 to 153 °C
15 | COc1ccc(-n2nc(C3CC3)cc2-c2ccc(OCCNS(C)(=O)=O)cc2)cc1 | 166 to 168 °C
16 | COc1ccc(-n2nc(C(=O)C(C)C)cc2-c2ccc(OCCN)cc2)cc1.Cl | 129 to 142 °C
17 | COc1ccc(-n2nc(C#N)cc2-c2ccc(OCCN)cc2)cc1.Cl | 186 to 189 °C
18 | COc1ccc(-n2nc(Cl)cc2-c2ccc(OCCNS(C)(=O)=O)cc2)cc1 | 117 to 119 °C
19 | COc1ccc(-n2nc(S(C)(=O)=O)cc2-c2ccc(OCCO)cc2)cc1 | 96 to 99 °C
20 | COc1ccc(-n2nc(S(C)(=O)=O)cc2-c2ccc(OCCN)cc2)cc1 | 104 to 106 °C
21 | COc1ccc(-n2nc(C(F)(F)F)cc2-c2ccc(CCS(N)(=O)=O)cc2)cc1 | 131 to 132 °C
22 | CNS(=O)(=O)CCc1ccc(-c2cc(C(F)(F)F)nn2-c2ccc(OC)nc2)cc1 | 139 to 140 °C
23 | COc1ccc(-n2nc(C(F)(F)F)cc2-c2ccc(CCC[S+](C)[O-])cc2)cn1 (centres unmarked) | 92 to 93 °C

Row | Structure (SMILES) | melting point
24 | COc1ccc(-n2nc(C(F)(F)F)cc2-c2ccc(OCC(N)=O)cc2)cc1 | 168 to 169 °C
25 | COc1ccc(-n2nc(-c3nc(C)no3)cc2-c2ccc(CCO)cc2)cc1 | 148 to 150 °C
26 | COc1ccc(-n2nc(C(=O)C(C)C)cc2-c2ccc(OCCO)cc2)cc1 | 95 to 96 °C
27 | COc1ccc(-n2nc(C(=O)C3CC3)cc2-c2ccc(OCCO)cc2)cc1 | 132 to 133 °C
28 | CO/N=C(\C)c1cc(-c2ccc(CCO)cc2)n(-c2ccc(OC)cc2)n1 | 82 to 86 °C
29 | COc1ccc(-n2nc(OC(C)C)cc2-c2ccc(OCCNS(C)(=O)=O)cc2)cc1 | 167.9 to 168 °C
30 | COc1ccc(-n2nc(NC(=O)N(C)C)cc2-c2ccc(OCCNS(C)(=O)=O)cc2)cc1 | 166 to 167 °C
31 | CCOCCOc1cc(-c2ccc(OCCNS(C)(=O)=O)cc2)n(-c2ccc(OC)cc2)n1 | 116.3 to 116.4 °C
32 | COc1ccc(-n2nc(C(F)(F)F)cc2-c2ccc(CNS(C)(=O)=O)cc2)cn1 | 125 to 126 °C
33 | COc1ccc(-n2nc(OCC(F)F)cc2-c2ccc(OCCNS(C)(=O)=O)cc2)cc1 | 145 to 145.1 °C
34 | COc1ccc(-n2nc(C(=O)N3CCCCC3)cc2-c2ccc(CNS(C)(=O)=O)cc2)cc1 | 179.3 to 179.6 °C
35 | CCN(C)C(=O)c1cc(-c2ccc(CNS(C)(=O)=O)cc2)n(-c2ccc(OC)cc2)n1 | 149.8 to 150.8 °C
36 | COc1ccc(-n2nc(C(C)C)cc2-c2ccc(CNS(C)(=O)=O)cc2)cc1 | 130.9 to 131 °C
37 | COc1ccc(-n2nc(C(=O)C(C)C)cc2-c2ccc(CNS(C)(=O)=O)cc2)cc1 | 155.8 to 155.9 °C
38 | COc1ccc(-n2nc(OC)cc2-c2ccc(CNS(C)(=O)=O)cc2)cc1 | 94 to 94.3 °C
39 | COc1ccc(-n2nc(OCC(F)(F)F)cc2-c2ccc(CNS(C)(=O)=O)cc2)cn1 | 130 to 131 °C
40 | COc1ccc(-n2nc(Cl)cc2-c2ccc(CNS(C)(=O)=O)cc2)cc1 | 68.3 to 69.3 °C
41 | COc1ccc(-n2nc(SC)cc2-c2ccc(OCCNS(C)(=O)=O)cc2)cc1 | 165 to 166 °C
42 | CCOC(=O)c1cc(-c2ccc(OCCO[Si](C)(C)C(C)(C)C)cc2)n(-c2ccc(OC)cc2)n1 | 86 to 87 °C
43 | COc1ccc(-n2nc(NC(=O)N(C)C)cc2-c2ccc(OCCO)cc2)cc1 | 167.4 to 167.6 °C
44 | COc1ccc(-n2nc(C(=O)N3CCCCC3)cc2-c2ccc(OCCNC(N)=O)cc2)cc1 | 152 to 152.2 °C
45 | CCN(C)C(=O)c1cc(-c2ccc(CNC(N)=O)cc2)n(-c2ccc(OC)cc2)n1 | 184.7 to 185.1 °C
46 | COc1ccc(-n2nc(Cl)cc2-c2ccc(CNC(N)=O)cc2)cc1 | 125.5 to 126.2 °C

Other lines, results leading:

Row | melting point | Structure (SMILES)
47 | 105 to 107 °C | COc1ccc(-n2nc(C#N)cc2-c2ccc(OCCO)cc2)cn1
48 | 106 to 107 °C | COc1ccc(-n2nc(C(C)C)cc2-c2ccc(OCCNC(N)=O)cc2)cn1
49 | 110 to 111 °C | CCN(C)C(=O)c1cc(-c2ccc(OCCO)cc2)n(-c2ccc(OC)nc2)n1
50 | 156 to 161 °C | COc1ccc(-n2nc(C(=O)C(C)C)cc2-c2ccc(OCCN)cc2)cn1.Cl.Cl
51 | 144 to 145 °C | COc1ccc(-n2nc(C(=O)C(C)C)cc2-c2ccc(OCCNC(N)=O)cc2)cc1
52 | 136 to 137 °C | COc1ccc(-n2nc(C(=O)C3CC3)cc2-c2ccc(OCCNC(N)=O)cc2)cc1
53 | 145 to 147 °C | COc1ccc(-n2nc(C(=O)C(C)C)cc2-c2ccc(OCCNC(N)=O)cc2)cn1
54 | 108 to 109 °C | COc1ccc(-n2nc(C(=O)C(C)C)cc2-c2ccc(OCCO)cc2)cn1
55 | 104 to 106 °C | COc1ccc(-n2nc(C(=O)C3CC3)cc2-c2ccc(OCCO)cc2)cn1
56 | 107 to 109 °C | COc1ccc(-n2nc(OC)cc2-c2ccc(OCCO)cc2)cc1
57 | 139 to 140 °C | COc1ccc(-n2nc(OC(C)C)cc2-c2ccc(OCCNC(N)=O)cc2)cc1
58 | 96 to 99 °C | C=C(C)c1cc(-c2ccc(OCCNS(C)(=O)=O)cc2)n(-c2ccc(OC)nc2)n1
59 | 103 to 104 °C | COc1ccc(-n2nc(OC)cc2-c2ccc(OCCNS(C)(=O)=O)cc2)cc1
60 | 94.5 to 94.7 °C | COCCOc1cc(-c2ccc(OCCNS(C)(=O)=O)cc2)n(-c2ccc(OC)cc2)n1
61 | 74 to 75 °C | COc1ccc(-n2nc(OC(C)C)cc2-c2ccc(OCCO)cc2)cn1
62 | 116 to 117.5 °C | COc1ccc(-n2nc(OC)cc2-c2ccc(OCCNS(C)(=O)=O)cc2)cn1
63 | 122 to 122.6 °C | CCOc1cc(-c2ccc(OCCNS(C)(=O)=O)cc2)n(-c2ccc(OC)nc2)n1
64 | 95 to 97 °C | COc1ccc(-n2nc(C3CC3)cc2-c2ccc(OCCNS(C)(=O)=O)cc2)cn1
65 | 158.8 to 159.1 °C | COc1ccc(-n2nc(C(=O)N3CCCCC3)cc2-c2ccc(OCCNS(C)(=O)=O)cc2)cn1
66 | 110 to 111 °C | CCN(C)C(=O)c1cc(-c2ccc(OCCNS(C)(=O)=O)cc2)n(-c2ccc(OC)nc2)n1
67 | 155.6 to 155.8 °C | COc1ccc(-n2nc(C(=O)C(C)C)cc2-c2ccc(OCCNS(C)(=O)=O)cc2)cn1
68 | 94 to 98 °C | C=C(C)c1cc(-c2ccc(OCCNC(N)=O)cc2)n(-c2ccc(OC)nc2)n1

Row | melting point | Structure (SMILES)
69 | 108 to 111 °C | COc1ccc(-n2nc(OC)cc2-c2ccc(OCCNC(N)=O)cc2)cc1
70 | 154.2 to 154.4 °C | CCOc1cc(-c2ccc(OCCNC(N)=O)cc2)n(-c2ccc(OC)cc2)n1
71 | 147 to 152 °C | COc1ccc(-n2nc(C(C)(C)O)cc2-c2ccc(OCCNC(N)=O)cc2)cc1
72 | 106.6 to 107.1 °C | COc1ccc(-n2nc(OCC(=O)N(C)C)cc2-c2ccc(OCCO)cc2)cc1
73 | 92.2 to 92.5 °C | COc1ccc(-n2nc(OC)cc2-c2ccc(OCCO)cc2)cn1
74 | 193 to 196 °C | COc1ccc(-n2nc(NC(=O)N(C)C)cc2-c2ccc(OCCNC(N)=O)cc2)cc1
75 | 131 to 132 °C | COCCOc1cc(-c2ccc(OCCNC(N)=O)cc2)n(-c2ccc(OC)cc2)n1
76 | 124.1 to 124.2 °C | CCOCCOc1cc(-c2ccc(OCCNC(N)=O)cc2)n(-c2ccc(OC)cc2)n1
77 | 223 to 227 °C | COc1ccc(-n2nc(OCC(=O)N(C)C)cc2-c2ccc(OCCNC(N)=O)cc2)cc1
78 | 192.6 to 192.7 °C | COc1ccc(-n2nc(OC)cc2-c2ccc(OCCNC(N)=O)cc2)cn1
79 | 133 to 138 °C | CCOc1cc(-c2ccc(OCCNC(N)=O)cc2)n(-c2ccc(OC)nc2)n1
80 | 94 to 96 °C | COc1ccc(-n2nc(C3CC3)cc2-c2ccc(OCCNC(N)=O)cc2)cn1
81 | 130 to 132 °C | COc1ccc(-n2nc(OCC(F)(F)F)cc2-c2ccc(OCCNC(N)=O)cc2)cc1
82 | 134.8 to 134.9 °C | COc1ccc(-n2nc(OCC(F)(F)F)cc2-c2ccc(OCCNC(N)=O)cc2)cn1
83 | 146.9 to 147.3 °C | COc1ccc(-n2nc(OCC(F)F)cc2-c2ccc(OCCNC(N)=O)cc2)cn1
84 | 172.6 to 172.8 °C | CCN(C)C(=O)c1cc(-c2ccc(CNC(N)=O)cc2)n(-c2ccc(OC)nc2)n1
85 | 139 to 144 °C | COc1ccc(-n2nc(C(C)C)cc2-c2ccc(CNC(N)=O)cc2)cn1
86 | 157 to 157.3 °C | COc1ccc(-n2nc(C(=O)C(C)C)cc2-c2ccc(CNC(N)=O)cc2)cn1
87 | 206 to 260.9 °C | COc1ccc(-n2nc(OC)cc2-c2ccc(CNC(N)=O)cc2)cc1
88 | 194 to 196 °C | COc1ccc(-n2nc(C(F)F)cc2-c2ccc(CCNC(N)=O)cc2)cn1
89 | 147 to 149 °C | COc1ccc(-n2nc(C(F)(F)F)cc2-c2ccc(CNC(N)=O)cc2)cn1

— patent US7183306B2, “Pyrazole derivatives” (Astellas Pharma Inc., priority 2002, dated 2007)
